Measured values from ChEMBL document CHEMBL1201862, “PubChem BioAssay data set” (2004).
Activity calls are given as the source filed them.

What was measured:
Exodeoxyribonuclease V = target: T1, Exodeoxyribonuclease V (Escherichia coli (strain K12), UniProt P04993+P07648+P08394); experiment: E. coli RecBCD inhibitors, dose response, counter-screen for AddAB inhibitor project, absorbance, V66 E. coli, mutant T4 phage (AID 492957); assay type: functional, cell-based, Escherichia coli str. K-12 substr. MG1655
T1 sequence (P04993 whole entry): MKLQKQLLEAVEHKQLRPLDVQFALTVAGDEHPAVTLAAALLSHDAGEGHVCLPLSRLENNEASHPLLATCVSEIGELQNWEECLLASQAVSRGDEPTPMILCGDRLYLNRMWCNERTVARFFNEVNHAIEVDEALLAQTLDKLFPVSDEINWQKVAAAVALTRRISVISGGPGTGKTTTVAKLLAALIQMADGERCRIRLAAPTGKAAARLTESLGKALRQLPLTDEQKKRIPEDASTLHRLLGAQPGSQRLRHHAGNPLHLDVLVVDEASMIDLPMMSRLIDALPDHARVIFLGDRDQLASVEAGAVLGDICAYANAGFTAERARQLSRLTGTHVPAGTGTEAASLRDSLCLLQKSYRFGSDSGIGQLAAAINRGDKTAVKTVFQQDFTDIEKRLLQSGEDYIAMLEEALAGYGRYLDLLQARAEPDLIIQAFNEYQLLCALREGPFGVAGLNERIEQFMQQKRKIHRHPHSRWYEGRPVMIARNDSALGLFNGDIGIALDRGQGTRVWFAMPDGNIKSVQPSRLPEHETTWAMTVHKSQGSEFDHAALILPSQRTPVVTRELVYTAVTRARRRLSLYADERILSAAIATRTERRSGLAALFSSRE
T1 sequence (P07648 whole entry): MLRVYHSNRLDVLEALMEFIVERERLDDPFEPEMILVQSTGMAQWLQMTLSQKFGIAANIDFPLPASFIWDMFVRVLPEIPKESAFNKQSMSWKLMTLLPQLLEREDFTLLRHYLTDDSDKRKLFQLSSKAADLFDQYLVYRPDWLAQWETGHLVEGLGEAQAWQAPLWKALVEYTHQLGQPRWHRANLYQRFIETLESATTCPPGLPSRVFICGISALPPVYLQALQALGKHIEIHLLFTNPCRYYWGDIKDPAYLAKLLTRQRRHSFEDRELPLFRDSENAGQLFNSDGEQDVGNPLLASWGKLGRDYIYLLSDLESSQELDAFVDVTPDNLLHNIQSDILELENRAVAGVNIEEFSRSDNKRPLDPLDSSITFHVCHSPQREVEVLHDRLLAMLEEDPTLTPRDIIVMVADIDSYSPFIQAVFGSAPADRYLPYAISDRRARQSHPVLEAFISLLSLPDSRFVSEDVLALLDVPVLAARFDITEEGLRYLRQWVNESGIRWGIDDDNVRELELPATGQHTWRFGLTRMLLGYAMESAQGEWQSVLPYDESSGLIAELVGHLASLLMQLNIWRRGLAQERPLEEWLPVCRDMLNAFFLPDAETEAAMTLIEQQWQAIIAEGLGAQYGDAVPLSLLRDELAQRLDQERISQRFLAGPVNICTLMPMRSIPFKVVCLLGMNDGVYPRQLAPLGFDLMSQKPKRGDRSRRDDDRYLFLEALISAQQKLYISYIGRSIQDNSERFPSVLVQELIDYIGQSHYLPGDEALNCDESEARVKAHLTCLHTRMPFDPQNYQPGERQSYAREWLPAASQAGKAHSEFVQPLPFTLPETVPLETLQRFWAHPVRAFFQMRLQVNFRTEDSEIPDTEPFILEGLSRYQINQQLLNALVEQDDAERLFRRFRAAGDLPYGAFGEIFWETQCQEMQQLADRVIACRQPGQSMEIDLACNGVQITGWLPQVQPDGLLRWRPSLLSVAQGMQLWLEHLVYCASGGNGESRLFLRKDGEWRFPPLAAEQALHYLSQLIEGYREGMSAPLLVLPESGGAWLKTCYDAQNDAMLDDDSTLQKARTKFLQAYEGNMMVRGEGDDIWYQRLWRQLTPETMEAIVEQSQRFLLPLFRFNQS
T1 sequence (P08394 whole entry): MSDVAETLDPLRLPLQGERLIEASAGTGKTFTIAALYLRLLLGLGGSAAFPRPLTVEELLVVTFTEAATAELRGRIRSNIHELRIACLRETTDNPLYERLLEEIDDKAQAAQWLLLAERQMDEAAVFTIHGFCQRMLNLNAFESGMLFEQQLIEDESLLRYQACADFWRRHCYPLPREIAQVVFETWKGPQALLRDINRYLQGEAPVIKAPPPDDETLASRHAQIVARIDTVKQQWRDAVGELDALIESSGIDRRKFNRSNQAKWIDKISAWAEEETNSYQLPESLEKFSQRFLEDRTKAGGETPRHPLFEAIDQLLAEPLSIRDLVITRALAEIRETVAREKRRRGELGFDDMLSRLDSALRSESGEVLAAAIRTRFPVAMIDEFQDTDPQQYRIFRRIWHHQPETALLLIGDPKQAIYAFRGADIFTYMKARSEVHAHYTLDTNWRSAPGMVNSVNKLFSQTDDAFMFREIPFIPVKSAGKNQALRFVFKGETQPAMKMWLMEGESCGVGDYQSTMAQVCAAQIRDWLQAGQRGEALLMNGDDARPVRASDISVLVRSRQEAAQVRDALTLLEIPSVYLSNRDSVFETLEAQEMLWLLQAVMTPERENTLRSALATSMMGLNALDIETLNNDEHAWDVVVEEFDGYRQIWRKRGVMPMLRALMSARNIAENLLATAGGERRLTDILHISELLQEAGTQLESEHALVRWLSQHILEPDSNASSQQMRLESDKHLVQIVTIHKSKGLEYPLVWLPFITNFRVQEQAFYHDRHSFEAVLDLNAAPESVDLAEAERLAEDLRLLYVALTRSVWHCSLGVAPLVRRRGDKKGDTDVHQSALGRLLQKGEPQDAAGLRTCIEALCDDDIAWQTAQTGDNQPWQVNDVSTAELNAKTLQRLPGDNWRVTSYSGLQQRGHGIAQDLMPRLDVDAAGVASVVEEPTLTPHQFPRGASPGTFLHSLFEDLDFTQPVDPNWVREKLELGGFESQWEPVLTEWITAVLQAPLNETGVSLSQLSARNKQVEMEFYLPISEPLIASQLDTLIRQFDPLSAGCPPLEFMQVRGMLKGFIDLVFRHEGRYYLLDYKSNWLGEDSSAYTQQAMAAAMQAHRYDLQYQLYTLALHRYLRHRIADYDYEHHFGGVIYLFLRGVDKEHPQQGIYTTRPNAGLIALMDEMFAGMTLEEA

[1] = target: Small ubiquitin-related modifier 1 (Homo sapiens, UniProt P63165); experiment: inhibitors of SUMO1 peptide binding, dose response, biochemical, fluorescence polarization, uHTS hits (AID 624382); assay type: functional; details: read-out: IC50_Mean
[2] = RKO cell viability reduction, dose response, CellTiter-Glo luminescence (AID 1117322); assay type: functional
Fatty acid synthase = Fatty acid synthase (Homo sapiens, UniProt P49327); experiment: FAS thioesterase domain inhibitors, dose response, biochemical, kinetic fluorescence intensity (AID 624326); assay type: functional;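 further: rate of fluorescence rise from hydrolysis of a fluorogenic O-methyl fluorescein ester substrate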
Sequence of Fatty acid synthase (P49327 whole entry, the tested form may be a part): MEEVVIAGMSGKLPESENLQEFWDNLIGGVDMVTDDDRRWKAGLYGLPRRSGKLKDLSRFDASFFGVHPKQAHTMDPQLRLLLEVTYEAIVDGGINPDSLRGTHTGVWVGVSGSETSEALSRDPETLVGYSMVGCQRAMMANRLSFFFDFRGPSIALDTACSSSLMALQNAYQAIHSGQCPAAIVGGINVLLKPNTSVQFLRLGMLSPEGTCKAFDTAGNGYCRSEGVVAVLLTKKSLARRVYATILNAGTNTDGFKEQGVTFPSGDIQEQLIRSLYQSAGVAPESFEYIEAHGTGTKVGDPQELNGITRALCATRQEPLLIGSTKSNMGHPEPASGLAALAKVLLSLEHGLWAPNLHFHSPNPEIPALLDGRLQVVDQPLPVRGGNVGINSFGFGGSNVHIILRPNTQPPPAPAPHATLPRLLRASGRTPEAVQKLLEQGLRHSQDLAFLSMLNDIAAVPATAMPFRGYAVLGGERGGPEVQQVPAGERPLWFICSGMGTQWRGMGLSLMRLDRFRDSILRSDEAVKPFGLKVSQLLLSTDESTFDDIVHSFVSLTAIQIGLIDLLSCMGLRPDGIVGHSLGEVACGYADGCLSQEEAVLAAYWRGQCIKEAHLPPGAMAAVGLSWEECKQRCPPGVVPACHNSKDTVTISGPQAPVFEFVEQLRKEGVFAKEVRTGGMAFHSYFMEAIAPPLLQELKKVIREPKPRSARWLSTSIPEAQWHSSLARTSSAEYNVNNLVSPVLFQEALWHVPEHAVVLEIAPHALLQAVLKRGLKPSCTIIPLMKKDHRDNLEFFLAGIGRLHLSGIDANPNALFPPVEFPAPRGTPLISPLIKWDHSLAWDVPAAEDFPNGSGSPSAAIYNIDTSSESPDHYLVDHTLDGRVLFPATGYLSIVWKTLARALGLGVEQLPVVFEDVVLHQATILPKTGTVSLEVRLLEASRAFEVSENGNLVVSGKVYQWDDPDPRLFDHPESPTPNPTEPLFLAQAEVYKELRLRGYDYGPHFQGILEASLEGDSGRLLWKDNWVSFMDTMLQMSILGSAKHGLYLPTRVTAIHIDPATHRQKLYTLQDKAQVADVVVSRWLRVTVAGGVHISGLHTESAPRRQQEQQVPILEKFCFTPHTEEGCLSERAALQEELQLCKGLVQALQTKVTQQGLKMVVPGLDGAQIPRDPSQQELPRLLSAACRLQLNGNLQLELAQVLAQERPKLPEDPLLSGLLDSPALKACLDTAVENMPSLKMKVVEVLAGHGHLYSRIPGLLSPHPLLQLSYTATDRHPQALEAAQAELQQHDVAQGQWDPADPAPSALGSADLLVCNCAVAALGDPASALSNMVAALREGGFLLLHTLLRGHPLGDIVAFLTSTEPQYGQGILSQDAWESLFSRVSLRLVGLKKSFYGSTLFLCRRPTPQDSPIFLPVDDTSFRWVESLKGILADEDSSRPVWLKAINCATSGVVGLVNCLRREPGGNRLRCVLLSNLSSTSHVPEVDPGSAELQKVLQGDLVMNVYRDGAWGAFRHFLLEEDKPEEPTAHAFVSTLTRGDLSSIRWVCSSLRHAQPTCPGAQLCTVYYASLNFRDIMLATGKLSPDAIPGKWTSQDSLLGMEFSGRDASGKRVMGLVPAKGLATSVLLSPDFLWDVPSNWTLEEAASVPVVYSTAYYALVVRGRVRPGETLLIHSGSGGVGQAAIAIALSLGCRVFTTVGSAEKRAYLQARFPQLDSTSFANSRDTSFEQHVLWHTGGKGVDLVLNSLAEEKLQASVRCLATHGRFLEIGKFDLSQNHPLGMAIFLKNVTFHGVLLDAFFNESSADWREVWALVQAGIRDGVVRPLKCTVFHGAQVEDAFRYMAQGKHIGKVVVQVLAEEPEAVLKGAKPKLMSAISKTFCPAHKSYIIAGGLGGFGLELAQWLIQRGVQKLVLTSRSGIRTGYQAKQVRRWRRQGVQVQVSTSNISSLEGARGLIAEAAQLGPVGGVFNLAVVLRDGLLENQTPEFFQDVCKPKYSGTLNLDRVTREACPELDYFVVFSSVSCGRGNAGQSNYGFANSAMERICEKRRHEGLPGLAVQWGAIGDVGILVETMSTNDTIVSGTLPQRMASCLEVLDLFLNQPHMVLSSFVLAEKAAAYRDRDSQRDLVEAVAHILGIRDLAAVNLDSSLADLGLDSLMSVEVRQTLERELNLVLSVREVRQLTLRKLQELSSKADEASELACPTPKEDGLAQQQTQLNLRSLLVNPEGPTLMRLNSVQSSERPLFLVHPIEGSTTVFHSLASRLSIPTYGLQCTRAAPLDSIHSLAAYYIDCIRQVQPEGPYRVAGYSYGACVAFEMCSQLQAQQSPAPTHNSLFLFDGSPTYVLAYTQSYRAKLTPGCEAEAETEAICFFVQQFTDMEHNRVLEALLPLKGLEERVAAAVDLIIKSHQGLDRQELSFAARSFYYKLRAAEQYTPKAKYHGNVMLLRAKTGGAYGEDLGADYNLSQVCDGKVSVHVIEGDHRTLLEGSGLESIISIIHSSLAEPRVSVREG

Sequence of Small ubiquitin-related modifier 1 (P63165 whole entry): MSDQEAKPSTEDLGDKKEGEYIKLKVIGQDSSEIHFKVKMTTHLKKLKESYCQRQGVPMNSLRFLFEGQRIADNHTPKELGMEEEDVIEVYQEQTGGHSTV

Row | SMILES | IC50 (Exodeoxyribonuclease V) | IC50 [1] | IC50 [2] | IC50 (Fatty acid synthase)
1 | CCCC(=O)NC(c1ccc(C(C)C)cc1)c1ccc2cccnc2c1O (centres undefined) | > 119 µM (inactive) |  |  | 
2 | Oc1c(Cl)cc(Cl)c(Cl)c1Cc1c(O)c(Cl)cc(Cl)c1Cl [HEXACHLOROPHENE] |  | 5.63 µM (active) | 0.108 µM (active) | 5.68 µM (active)
